From patent US20100092497A1, “METHODS OF IMMUNE OR HAEMATOLOGICAL ENHANCEMENT, INHIBITING TUMOUR FORMATION OR GROWTH, AND TREATING OR PREVENTING CANCER” (priority 2006, published 2010)

Columns and labels:
[1] = system: EL-4 T cell thymic lymphoma; assay: EL-4 tumour challenge in mice fed experimental diets (tumour growth, rejection, response to paclitaxel); assay type: in vivo, C57BL/6 mice; conditions: Example 1; control diet; paclitaxel 30 mg/Kg i.p. at tumours ~0.6 cm
[2] = daily for several years; cited from earlier work
[3] = system: EL-4 target cells; assay: Anti-tumour cytolytic activity of splenocytes (CTL assay); assay type: cell-based, mouse; conditions: Example 4; high dose vitamin D (45.2 mg/Kg) by itself or Fe-saturated Lf
Experimental: Splenocytes were harvested 28 days following tumour cell injection, as specified. They were incubated at 37° C. with EL-4 target cells in graded E:T ratios in 96-well round-bottom plates. After a 4-hour incubation, 50 μl of supernatant was collected, and lysis was measured using the Cyto Tox 96 Assay Kit (Promega, Madison, Wis., USA). Background controls for non-specific target and effector cell lysis were included. After background subtraction, percentage of cell lysis was calculated using the formula: 100×(experimental-spontaneous effector-spontaneous target/maximum target-spontaneous target).

| SMILES | tumour response to paclitaxel [1] | daily ingestion after which most cases of toxicity were reported [2] | increase in anti-tumour cytolytic activity of splenocytes, agent by itself [3] [fold] |
| --- | --- | --- | --- |
| CC(=O)O[C@H]1C(=O)[C@@]2(C)[C@H]([C@H](OC(=O)c3ccccc3)[C@]3(O)C[C@H](OC(=O)[C@H](O)[C@@H](NC(=O)c4ccccc4)c4ccccc4)C(C)=C1C3(C)C)[C@]1(OC(C)=O)CO[C@@H]1C[C@@H]2O [paclitaxel, reference compound] | completely resistant | – | – |
| C=C1CC[C@H](O)C/C1=C/C=C1\CCC[C@]2(C)[C@@H]([C@H](C)CCCC(C)C)CC[C@@H]12 [vitamin D, cholecalciferol, reference compound] | – | greater than 50,000 IU | 1.9 |
